Measured values taken from patent publication US9045431B2, “Processes for the preparation of 5-HT2C receptor agonists” (Arena Pharmaceuticals, Inc., priority 2010, dated 2015).
Entries after “also recorded” stand apart in the source; their conditions may differ.

Assays:
[1] = Dynamic moisture sorption (DMS); type: physicochemical; details: for DMS result (hygroscopicity / form conversion): isotherm 25° C., 10% RH to 90% or 95% RH
Description: Dynamic moisture-sorption (DMS) studies were conducted using a dynamic moisture-sorption analyzer, VTI Corporation, SGA-100. Samples were prepared for DMS analysis by placing 5 mg to 20 mg of a compound or a salt thereof in a tared sample holder. The sample was placed on the hang-down wire of the VTI balance. A drying step was run, typically at 40° C. and 0.5-1% RH for 1-2 h. The isotherm temperature is 25° C. Defined % RH holds typically ranged from 10% RH to 90% RH or 95% RH, with intervals of 10 to 20% RH. A % weight change smaller than 0.010% over a specified number of minutes (typically 10-20), or up to 2 h, whichever occurs first, is required before continuing to the next % RH hold. The water content of the sample equilibrated as described above was determined at each % RH hold.

[2] = Competitive slurry experiments / solution-mediated phase transformation (thermodynamic stability of crystal forms); type: physicochemical; details: for relative thermodynamic stability among the anhydrous polymorphs: ambient / room temperature
From the text: The thermodynamic relationships between the Compound 1 hydrochloride salt hemihydrate Form III and the anhydrous polymorphs of Compound 1 hydrochloride salt were established by competitive slurry experiments in acetonitrile and acetone at various aw, values.
At the critical aw, a given anhydrous form and Compound 1 hydrochloride salt hemihydrate Form III will have equal solubility and can coexist in equilibrium. Below the critical aw, the anhydrous form is more thermodynamically stable, thus less soluble. Above the critical water activity, Compound 1 hydrochloride salt hemihydrate Form III is more thermodynamically stable, thus less soluble. Solids from the competitive slurry experiments were identified by PXRD. Slurries with known aw values were used instead of humidity chambers because solution-mediated phase transformations (SMPTs) are much faster than vapor-mediated phase transformations, especially near the critical aw. […] FIG. 16 illustrates the critical aw of form Compound 1 hydrochloride salt hemihydrate Form III, with respect to Compound 1 hydrochloride salt Form I, and Compound 1 hydrochloride salt, IV.
For enantiotropic polymorphs, the temperature that marks the point at which two polymorphs have the same thermodynamic stability is called the transition temperature (Tt).

[3] = cited from earlier work; for reported side effect: in some patients
[4] = cited from earlier work
[5] = pivotal phase 3 program, treated for up to two years, fraction of patients
[6] = pivotal phase 3 program, up to two years
[7] = second phase 3 trial, top quartile

## C[C@H]1CNCCc2ccc(Cl)cc21.C[C@H]1CNCCc2ccc(Cl)cc21.Cl.Cl.O [(R)-8-Chloro-1-methyl-2,3,4,5-tetrahydro-1H-3-benzazepine Hydrochloride Hemihydrate Form III]
[1]; after DVS cycle
  change in crystalline form by PXRD after the DVS cycle: no change
[1]; at 90% RH
  water adsorbed in DMS: less than 0.5 wt %
[1]
  DMS result (hygroscopicity / form conversion): substantially non-hygroscopic
[1]; listed as Compound 1 Hydrochloride Salt Hemihydrate, Form III
  DMS result (hygroscopicity / form conversion): FIG. 11: non-hygroscopic

## C[C@H]1CNCCc2ccc(Cl)cc21.Cl [Compound 1 hydrochloride salt Form I, (R)-8-Chloro-1-methyl-2,3,4,5-tetrahydro-1H-3-benzazepine Hydrochloride Salt Form I]
[1]
  DMS result (hygroscopicity / form conversion): complete conversion to Compound 1 hydrochloride hemihydrate Form III
[1]; listed as Compound 1 Hydrochloride Salt Form I
  DMS result (hygroscopicity / form conversion): FIG. 3: Converts to Form III hemihydrate

## C[C@H]1CNCCc2ccc(Cl)cc21.Cl [Compound 1 hydrochloride salt Form II, (R)-8-Chloro-1-methyl-2,3,4,5-tetrahydro-1H-3-benzazepine Hydrochloride Salt Form II]
[2]
  relative thermodynamic stability among the anhydrous polymorphs: least stable anhydrous polymorph
[1]
  DMS result (hygroscopicity / form conversion): converting to the hemihydrate Form III
[1]; listed as Compound 1 Hydrochloride Salt Form II
  DMS result (hygroscopicity / form conversion): FIG. 7: Converts to Form III hemihydrate

## C[C@H]1CNCCc2ccc(Cl)cc21.Cl [Compound 1 hydrochloride salt Form IV, (R)-8-Chloro-1-methyl-2,3,4,5-tetrahydro-1H-3-benzazepine Hydrochloride Salt Form IV]
[2]
  relative thermodynamic stability among the anhydrous polymorphs: most stable of the three anhydrous polymorphs; also recorded: more stable than Compound 1 hydrochloride salt Form I
[2]; ambient temperature
  relative humidity at which the form is not thermodynamically favored over hemihydrate Form III: ≥ 20 % RH
[1]
  DMS result (hygroscopicity / form conversion): converting to Compound 1 hydrochloride salt Form III
[1]; listed as Compound 1 Hydrochloride Salt Form IV
  DMS result (hygroscopicity / form conversion): FIG. 14: Converts to hemihydrate

## CC(C)CC(N(C)C)C1(c2ccc(Cl)cc2)CCC1 (stereo not drawn) [Sibutramine]
[3]
  reported side effect: raised blood pressure

## CCCCCCCCCCC[C@@H](C[C@@H]1OC(=O)[C@H]1CCCCCC)OC(=O)[C@H](CC(C)C)NC=O [Xenical™, Orlistat]
[3]
  reported side effect: gastrointestinal distress

## CCN[C@@H](C)Cc1cccc(C(F)(F)F)c1 [d-fenfluramine]
[3]; reports that led to withdrawal by the FDA in 1998
  cardiac valve defects, fraction of patients: up to one third

## C[C@H]1CNCCc2ccc(Cl)cc21.Cl [lorcaserin, (R)-8-Chloro-1-methyl-2,3,4,5-tetrahydro-1H-3-benzazepine hydrochloride]
[4]; clinical program
  adverse event that exceeded the placebo rate by 5%: generally mild or moderate, transient headache
  depression or suicidal ideation: no signal
  heart rate and blood pressure: went down
  quality of life: improved
  risk of cardiac valvulopathy: did not increase
[4]; compared to placebo
  secondary endpoints (body composition, lipids, cardiovascular risk factors, glycemic parameters): improved compared to placebo
[4]; first phase 3 trial, based on a normal BMI of 25, fraction of excess body weight
  excess body weight lost: about one-third
[4]; pivotal phase 3 program, on average
  average weight lost, of their weight: about 8%
[4]; [5]
  patients who achieved at least 5% weight loss: About two-thirds
  patients who achieved at least 10% weight loss: over one-third
[4]; [6]
  tolerability: excellent tolerability
  weight loss (in words): significant weight loss
[4]; [7]
  average weight loss, top quartile of patients: 35 pounds
  average weight loss, top quartile of patients, of body weight: 16%
